The values below come from patent publication US20240158348A1, “HERBICIDAL CYCLIC AMIDES N-SUBSTITUTED WITH A HALOALKYLSULFONYLANILIDE GROUP” (FMC Corporation, priority 2021, published 2024).

What all share (assay type): in vivo
For experiment [1], the system named is corn (Zea mays). Put plainly: Test C postemergence, corn. Particulars: for Corn plant response rating: visual injury, 0 to 100 scale (0 no effect, 100 complete control); for Plant response rating (0 to 100 scale), Corn: 0 is no effect, 100 is complete control.
Experiment [2] deals with corn (Zea mays). The experiment is described as follows: Test C preemergence, corn. Particulars: 0 is no effect, 100 is complete control. The method in brief:
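Corn, ragweed and goosegrass were sown in loam/sand and given a preemergence directed soil spray of compounds in a non-phytotoxic solvent with surfactant. Galium was sprayed postemergence at 2–10 cm height, one- to two-leaf stage. After 10 or 12 days in a greenhouse, injury was rated visually against untreated controls on a 0 (no effect) to 100 (complete control) scale.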

The subject of experiment [3] is soybean (Glycine max). Put plainly: Test C preemergence, soybean. Particulars: 0 is no effect, 100 is complete control. The method in brief:
(§1)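 Herbicidal effect was estimated visually on a 0–100 scale 10 or 12 days after spraying. Formulation: non-phytotoxic solvent mixture with surfactant. Timing: directed soil spray after sowing, or postemergence on seedlings bearing one or two leaves.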

The test system of experiment [4] is ragweed (common ragweed, Ambrosia artemisiifolia). Put plainly: Test C postemergence, ragweed. Particulars: visual injury, 0 to 100 scale (0 no effect, 100 complete control). The method, boiled down: as §1
The subject of experiment [5] is blackgrass (Alopecurus myosuroides). The experiment is described as follows: Test C preemergence, blackgrass. Particulars: 0 is no effect, 100 is complete control. The method in brief: as §1
The test system of experiment [6] is oat, wild (wild oat, Avena fatua). The experiment is described as follows: Test C postemergence, wild oat. Particulars: for Oat, Wild plant response rating: visual injury, 0 to 100 scale (0 no effect, 100 complete control); for Plant response rating (0 to 100 scale), Oat, Wild: 0 is no effect, 100 is complete control.
Experiment [7] has as its system horseweed (Erigeron canadensis). The experiment is described as follows: Test C postemergence, horseweed. Particulars: for Horseweed plant response rating: visual injury, 0 to 100 scale (0 no effect, 100 complete control); for Plant response rating (0 to 100 scale), Horseweed: 0 is no effect, 100 is complete control. The method, boiled down: as §1
Experiment [8] deals with kochia (Bassia scoparia). Put plainly: Test C preemergence, kochia. Particulars: 0 is no effect, 100 is complete control. The method in brief: as §1

`CC(=O)N(c1cc(N2CCC(OC3CC3)C2=O)c(C)cc1Cl)S(=O)(=O)C(F)(F)F` (stereo not shown) [Compound 38]: the “Corn plant response rating” value in experiment [1] (31 g ai/ha Postemergence) was 80. The “Plant response rating (0 to 100 scale), Corn” value in experiment [1] (125 g ai/ha Postemergence) stood at 90; in experiment [2] (31 g ai/ha Preemergence), 20; in experiment [2] (125 g ai/ha Preemergence), 80. Also, the “Plant response rating (0 to 100 scale), Soybean” value (“Plant response rating … Soybean” below) in experiment [3] (31 g ai/ha Preemergence) was determined as 80; in experiment [3] (125 g ai/ha Preemergence), 90. Moreover, the “Ragweed plant response rating” value came out at 80 in experiment [4] (31 g ai/ha Postemergence) and 90 in experiment [4] (125 g ai/ha Postemergence). Also, the “Plant response rating (0 to 100 scale), Blackgrass” value (from here on “Plant response rating … Blackgrass”) in experiment [5] (31 g ai/ha Preemergence) was 80; in experiment [5] (125 g ai/ha Preemergence), 90. Moreover, the “Oat, Wild plant response rating” value in experiment [6] (31 g ai/ha Postemergence) turned out to be 50. Further, the “Plant response rating (0 to 100 scale), Oat, Wild” value in experiment [6] (125 g ai/ha Postemergence) came to 60. Moreover, the “Horseweed plant response rating” value in experiment [7] (31 g ai/ha Postemergence) is listed as 90. Besides, the “Plant response rating (0 to 100 scale), Horseweed” value in experiment [7] (125 g ai/ha Postemergence) was 100. The “Plant response rating (0 to 100 scale), Kochia” value (from here on “Plant response rating … Kochia”) in experiment [8] (31 g ai/ha Preemergence) and in experiment [8] (125 g ai/ha Preemergence) was 100 throughout.

As for `Cc1c(N2CCCC(OC3CCC3)C2=O)cc(N(COC(=O)C(C)(C)C)S(=O)(=O)C(F)(F)F)c(C)c1F` (stereo not shown) [Compound 39], in experiment [1] (31 g ai/ha Postemergence), the “Corn plant response rating” value was 0. Also, the results for the “Plant response rating (0 to 100 scale), Corn” value in experiment [1] (125 g ai/ha Postemergence), in experiment [2] (31 g ai/ha Preemergence) and in experiment [2] (125 g ai/ha Preemergence) were 10, 0 and 10, respectively. Further, the “Plant response rating … Soybean” value in experiment [3] (31 g ai/ha Preemergence) is reported as 0; in experiment [3] (125 g ai/ha Preemergence) it was 60. Also, the “Ragweed plant response rating” value in experiment [4] (31 g ai/ha Postemergence) came to 30; in experiment [4] (125 g ai/ha Postemergence), 80. For the same molecule, the figures for the “Plant response rating … Blackgrass” value in experiment [5] (31 g ai/ha Preemergence) and in experiment [5] (125 g ai/ha Preemergence) were 0 and 20, respectively. In experiment [6] (31 g ai/ha Postemergence), the “Oat, Wild plant response rating” value turned out to be 0. Moreover, the “Plant response rating (0 to 100 scale), Oat, Wild” value in experiment [6] (125 g ai/ha Postemergence) turned out to be 20. Also, the “Horseweed plant response rating” value in experiment [7] (31 g ai/ha Postemergence) was 70. In addition, the “Plant response rating (0 to 100 scale), Horseweed” value in experiment [7] (125 g ai/ha Postemergence) came out at 90. Besides, the “Plant response rating … Kochia” value came to 20 in experiment [8] (31 g ai/ha Preemergence) and 60 in experiment [8] (125 g ai/ha Preemergence).

For the molecule `COC(=O)N(c1cc(N2CCC(OC3CC3)C2=O)c(C)cc1Cl)S(=O)(=O)C(F)(F)F` (stereo not shown) [Compound 40], the “Corn plant response rating” value in experiment [1] (31 g ai/ha Postemergence) is 80. The “Plant response rating (0 to 100 scale), Corn” value in experiment [1] (125 g ai/ha Postemergence) was found to be 100; in experiment [2] (31 g ai/ha Preemergence), 50; in experiment [2] (125 g ai/ha Preemergence), 90. Further, the “Plant response rating … Soybean” value in experiment [3] (31 g ai/ha Preemergence) turned out to be 70; in experiment [3] (125 g ai/ha Preemergence), 90. Also, the “Ragweed plant response rating” value in experiment [4] (31 g ai/ha Postemergence) was 60; in experiment [4] (125 g ai/ha Postemergence), 80. Besides, the results for the “Plant response rating … Blackgrass” value in experiment [5] (31 g ai/ha Preemergence) and in experiment [5] (125 g ai/ha Preemergence) were 50 and 90, respectively. In addition, the “Oat, Wild plant response rating” value in experiment [6] (31 g ai/ha Postemergence) is recorded as 50. Moreover, in experiment [6] (125 g ai/ha Postemergence), the “Plant response rating (0 to 100 scale), Oat, Wild” value came to 80. The “Horseweed plant response rating” value in experiment [7] (31 g ai/ha Postemergence) is given as 80. Also, the “Plant response rating (0 to 100 scale), Horseweed” value in experiment [7] (125 g ai/ha Postemergence) was 80. For the same molecule, the “Plant response rating … Kochia” value in experiment [8] (31 g ai/ha Preemergence) came out at 90; in experiment [8] (125 g ai/ha Preemergence), 100.

Turning to `Cc1cc(C)c(N2CCC(OCC3CC3(F)F)C2=O)cc1NS(=O)(=O)C(F)(F)F` (stereo not shown) [Compound 41], the results for the “Corn plant response rating” value in experiment [1] (31 g ai/ha Postemergence) and in experiment [1] (125 g ai/ha Postemergence) were 40 and 90, respectively. Besides, the “Plant response rating (0 to 100 scale), Corn” value is 90 in experiment [2] (31 g ai/ha Preemergence) and 100 in experiment [2] (125 g ai/ha Preemergence). The results for the “Plant response rating … Soybean” value in experiment [3] (31 g ai/ha Preemergence) and in experiment [3] (125 g ai/ha Preemergence) were 60 and 100, respectively. The “Ragweed plant response rating” value worked out at 50 in experiment [4] (31 g ai/ha Postemergence) and 70 in experiment [4] (125 g ai/ha Postemergence). Besides, the “Plant response rating … Blackgrass” value is recorded as 80 in experiment [5] (31 g ai/ha Preemergence) and 100 in experiment [5] (125 g ai/ha Preemergence). Also, the “Oat, Wild plant response rating” value in experiment [6] (31 g ai/ha Postemergence) and in experiment [6] (125 g ai/ha Postemergence) was 30 in each case. The “Horseweed plant response rating” value in experiment [7] (31 g ai/ha Postemergence) was 70; in experiment [7] (125 g ai/ha Postemergence), 100. In addition, the “Plant response rating … Kochia” value in experiment [8] (31 g ai/ha Preemergence) and in experiment [8] (125 g ai/ha Preemergence) was 100 in each case.
